From the supplement of paper PMC13380429

What was measured:
Details in all cases: 72 h
Vero E6 [1] = assay: drug sensitivity score (DSS) for viability; higher = more toxic; extreme values may be limits of the assay
U2OS [2] = assay: as above
Calu-3 [3] = assay: as above
Caco-2 [4] = assay: as above
HepG2 [5] = assay: as above
Vero E6 [6] = assay: cell viability relative to DMSO; higher = less toxic
U2OS [7] = assay: as above
Calu-3 [8] = assay: as above
Caco-2 [9] = assay: as above
HepG2 [10] = assay: as above
Vero E6 [11] = assay: relative viability EC50 (midpoint between 100% and the lowest measured viability); higher = less toxic
U2OS [12] = assay: as above
Caco-2 [13] = assay: as above
HepG2 [14] = assay: as above

Row | Compound | drug sensitivity score (Vero E6 [1]) | drug sensitivity score (U2OS [2]) | drug sensitivity score (Calu-3 [3]) | drug sensitivity score (Caco-2 [4]) | drug sensitivity score (HepG2 [5]) | cell viability (Vero E6 [6]; 1 nM) | cell viability (Vero E6 [6]; 10 nM) | cell viability (Vero E6 [6]; 100 nM) | cell viability (Vero E6 [6]; 1000 nM) | cell viability (Vero E6 [6]; 10000 nM) | cell viability (U2OS [7]; 10 nM) | cell viability (U2OS [7]; 100 nM) | cell viability (U2OS [7]; 1000 nM) | cell viability (U2OS [7]; 10000 nM) | cell viability (Calu-3 [8]; 10 nM) | cell viability (Calu-3 [8]; 100 nM) | cell viability (Calu-3 [8]; 1000 nM) | cell viability (Calu-3 [8]; 10000 nM) | cell viability (Caco-2 [9]; 1 nM) | cell viability (Caco-2 [9]; 10 nM) | cell viability (Caco-2 [9]; 100 nM) | cell viability (Caco-2 [9]; 1000 nM) | cell viability (Caco-2 [9]; 10000 nM) | cell viability (HepG2 [10]; 1 nM) | cell viability (HepG2 [10]; 10 nM) | cell viability (HepG2 [10]; 100 nM) | cell viability (HepG2 [10]; 10000 nM) | relative viability EC50 (Vero E6 [11]) | relative viability EC50 (U2OS [12]) | relative viability EC50 (Caco-2 [13]) | relative viability EC50 (HepG2 [14]) | cell viability (U2OS [7]; 1 nM) | cell viability (HepG2 [10]; 1000 nM) | cell viability (Calu-3 [8]; 1 nM)
1 | O=C(Nc1cccc2cccnc12)c1ccc(N2C(=O)[C@@H]3[C@H](C2=O)[C@@H]2C=C[C@H]3C2)cc1 [endo-IWR-1] | 3.9 | 0 | 2.9 | 0 | 0 | 110% | 105% | 97.6% | 78.8% | 66.7% | 105% | 103% | 98% | 93.3% | 108% | 98.9% | 81.8% | 74.4% | 96% | 94.3% | 101% | 89.2% | 94.2% | 108% | 103% | 98.5% | 91.7% | – | – | – | – | – | – | –
2 | CCCCC/C=C\C/C=C\C/C=C\CCCCC(=O)O [gamma-linolenic-acid] | 0 | 0 | – | 0 | 0 | 98.2% | 103% | 97.2% | 103% | 100% | 106% | 98.9% | 103% | 103% | – | – | – | – | 97.9% | 103% | 102% | 116% | 94% | 107% | 115% | 94.8% | 107% | > 10 µM | > 10 µM | > 10 µM | > 10 µM | 106% | 99.2% | –
3 | C[C@]12CCC(=O)C=C1CC[C@@H]1[C@@H]2[C@@H](O)C[C@@]2(C)[C@H]1CC[C@]2(O)C(=O)CO [hydrocortisone] | 0 | 0 | 0 | – | 2.9 | – | – | – | – | – | – | – | – | – | – | – | – | – | – | – | – | – | – | – | – | – | – | – | – | – | – | – | – | –
4 | CC(C)C(N)=O [isobutyramide] | 0 | 0 | – | 0 | 0 | 105% | 106% | 96.2% | 98% | 105% | 97.6% | 101% | 98.8% | 104% | – | – | – | – | 95.1% | 95.6% | 97.9% | 90.2% | 98.2% | 115% | 99.1% | 90.3% | 96.8% | > 10 µM | > 10 µM | > 10 µM | > 10 µM | 102% | 101% | –
5 | O=c1cc(-c2ccc(O)c(O)c2)oc2cc(O)cc(O)c12 [luteolin] | 0 | 0.4 | 0.9 | 1.1 | 0 | 99.5% | 105% | 94.7% | 101% | 95.3% | 105% | 99.9% | 105% | 79.4% | 123% | 107% | 106% | 70.9% | 92.8% | 98.1% | 95.9% | 94.5% | 79.3% | 111% | 99.4% | 117% | 90.8% | > 10 µM | > 10 µM | > 10 µM | > 10 µM | 99.9% | 97.5% | 105%
6 | CCN(CC)CCNC(=O)c1cc(Cl)c(N)cc1OC [metoclopramide] | 0 | 0 | 0 | – | 0 | – | – | – | – | – | – | – | – | – | – | – | – | – | – | – | – | – | – | – | – | – | – | – | – | – | – | – | – | –
7 | Nc1cc(N2CCCCC2)nc(N)[n+]1[O-] [minoxidil] | 0 | 0 | 0 | – | 0 | – | – | – | – | – | – | – | – | – | – | – | – | – | – | – | – | – | – | – | – | – | – | – | – | – | – | – | – | –
8 | CC1(C)CCC(C)(C)c2cc(Cn3cccn3)c(/C=C/c3ccc(C(=O)O)cc3)cc21 [palovarotene] | 0 | 0 | – | 0 | 0 | 100% | 104% | 100% | 106% | 98.3% | 99.6% | 102% | 94% | 94.8% | – | – | – | – | 107% | 93.7% | 94.8% | 96% | 92.9% | 95.4% | 99.7% | 103% | 99.4% | > 10 µM | > 10 µM | > 10 µM | > 10 µM | 105% | 113% | –
9 | Cc1cc(=O)n(-c2ccccc2)n1C [phenazone] | 0 | 0 | 0 | – | 0.8 | – | – | – | – | – | – | – | – | – | – | – | – | – | – | – | – | – | – | – | – | – | – | – | – | – | – | – | – | –
10 | COc1cc(NS(=O)(=O)c2ccc(N)cc2)ncn1 [sulfamonomethoxine] | 0 | 0 | – | 0 | 0 | 106% | 106% | 106% | 104% | 97% | 99.7% | 101% | 102% | 100% | – | – | – | – | 92.6% | 102% | 95.4% | 98.4% | 98.7% | 108% | 104% | 115% | 90.9% | > 10 µM | > 10 µM | > 10 µM | > 10 µM | 101% | 107% | –
11 | Cn1nc(-c2cccc(F)c2)n(C)c1=S [suritozole] | 0 | 0 | – | 0 | 0 | 102% | 101% | 99.4% | 94.5% | 98.4% | 101% | 99.7% | 103% | 96% | – | – | – | – | 93.6% | 97.5% | 102% | 96% | 90.1% | 108% | 99.4% | 98.2% | 97% | > 10 µM | > 10 µM | > 10 µM | > 10 µM | 98.9% | 106% | –
12 | CN(C)C(=S)SC(=S)N(C)C [tetramethylthiuram-monosulfide] | 8.1 | 5.7 | 8.4 | – | 11.3 | – | – | – | – | – | – | – | – | – | – | – | – | – | – | – | – | – | – | – | – | – | – | – | – | – | – | – | – | –
13 | N#C[C@@H]1CCCN1C(=O)CNC12CC3CC(CC(O)(C3)C1)C2 [vildagliptin] | 0 | – | 0 | – | 0 | – | – | – | – | – | – | – | – | – | – | – | – | – | – | – | – | – | – | – | – | – | – | – | – | – | – | – | – | –
